Measurements taken from paper PMC8286840, “Identifying SARS-CoV-2 antiviral compounds by screening for small molecule inhibitors of Nsp3 papain-like protease” (Biochemical Journal, 2021).
Where a name gives a salt, the structure may show the parent alone. Read-outs that look alike come from different tables or passages of the source.

Key:
[1] = target: T1, SARS-CoV-2 PLpro (nsp3 1564–1878) (Severe acute respiratory syndrome coronavirus 2, UniProt P0DTD1); experiment: biochemical; design: FRET-quenched peptide (Pro3) cleavage by PLpro, 10 min pre-incubation, slope over 20 min, normalised to no-compound control; conditions: low concentration screen, read-out: % of control remaining
[2] = target: T1, SARS-CoV-2 PLpro (nsp3 1564–1878); experiment: biochemical; design: FRET-quenched peptide (Pro3) cleavage by PLpro, 10 min pre-incubation, slope over 20 min, normalised to no-compound control; conditions: high concentration screen, read-out: % of control remaining

Structure (SMILES): Cn1c(=O)c2c(ncn2CC(=O)O)n(C)c1=O [Acefylline]
- remaining activity at 1.25 µM ([1]; Well no.=8081): 102%
- remaining activity at 1.25 µM ([1]; Well no.=8491): 105%
- remaining activity at 3.75 µM ([2]; Well no.=8081): 100%
- remaining activity at 3.75 µM ([2]; Well no.=8491): 103%

Structure (SMILES): CCCCCCCCCCCCCCCCn1cc[n+](Cc2ccccc2)c1C [NH 125 - 1-Hexadecyl-2-methyl-3-(phenylmethyl)-1H-imidazolium iodide]
- remaining activity at 1.25 µM ([1]; Well no.=2336): 97.5%
- remaining activity at 3.75 µM ([2]; Well no.=2336): 97%

Structure (SMILES): C[C@]1(c2nc3c(C(N)=O)cccc3[nH]2)CCCN1 [ABT-888 (Veliparib)]
- remaining activity at 1.25 µM ([1]; Well no.=5222): 95.8%
- remaining activity at 3.75 µM ([2]; Well no.=5222): 94.2%

Structure (SMILES): COc1cc2c(CCNC(C)=O)c[nH]c2cc1Cl [6-Chloromelatonin]
- remaining activity at 1.25 µM ([1]; Well no.=89): 98.5%
- remaining activity at 3.75 µM ([2]; Well no.=89): 101%

Structure (SMILES): C[C@H](O)CC(=O)O [(S)-3-Hydroxybutanoic acid]
- remaining activity at 1.25 µM ([1]; Well no.=7301): 109%
- remaining activity at 3.75 µM ([2]; Well no.=7301): 105%

Structure (SMILES): CCCCC[C@H](O)/C=C/C=C\C=C\[C@@H](O)C/C=C\CCCC(=O)O [8(S),15(S)-DIHETE]
- remaining activity at 1.25 µM ([1]; Well no.=4371): 102%
- remaining activity at 3.75 µM ([2]; Well no.=4371): 99.4%

Structure (SMILES): CCCCC[C@H](O)/C=C/[C@H]1C=CC(=O)[C@@H]1C/C=C\CCCC(=O)O [Prostaglandin A2]
- remaining activity at 1.25 µM ([1]; Well no.=4467): 100%
- remaining activity at 3.75 µM ([2]; Well no.=4467): 96.3%

Structure (SMILES): CN(C)CCN(C)CCc1ccc(Cl)c(Cl)c1 [BD 1047 dihydrobromide]
- remaining activity at 1.25 µM ([1]; Well no.=5470): 101%
- remaining activity at 3.75 µM ([2]; Well no.=5470): 108%

Structure (SMILES): CCCCC(C)(C)[C@H](O)/C=C/[C@H]1[C@H](O)CC(=O)[C@@H]1C/C=C\CCCC(=O)O [16,16-Dimethyl-prostaglandin E2]
- remaining activity at 1.25 µM ([1]; Well no.=4517): 96.1%
- remaining activity at 3.75 µM ([2]; Well no.=4517): 99.3%

Structure (SMILES): COC(=O)[C@@H]1[C@H]2C[C@H]3c4[nH]c5ccccc5c4CCN3C[C@@H]2CC[C@@H]1O [Yohimbine hydrochloride]
- remaining activity at 1.25 µM ([1]; Well no.=1198): 105%
- remaining activity at 3.75 µM ([2]; Well no.=1198): 104%

Structure (SMILES): C[C@@H]1O[C@@H](O[C@H]2[C@H](Oc3cc(O)c4c(=O)cc(-c5ccc(O)cc5)oc4c3)O[C@H](CO)[C@@H](O)[C@@H]2O)[C@H](O)[C@H](O)[C@H]1O [Rhoifolin]
- remaining activity at 1.25 µM ([1]; Well no.=3733): 95.5%
- remaining activity at 3.75 µM ([2]; Well no.=3733): 98.5%

Structure (SMILES): c1ccc2c(-c3cnn4cc(-c5ccc(N6CCNCC6)cc5)cnc34)ccnc2c1 [LDN193189]
- remaining activity at 1.25 µM ([1]; Well no.=4956): 99.3%
- remaining activity at 3.75 µM ([2]; Well no.=4956): 97.7%

Structure (SMILES): CNCC(=O)c1ccc(O)c(O)c1 [Adrenalone HCl]
- remaining activity at 1.25 µM ([1]; Well no.=5034): 94.7%
- remaining activity at 3.75 µM ([2]; Well no.=5034): 94.4%

Structure (SMILES): Cn1c(=O)c2[nH]c(-c3ccccc3)nc2n(C)c1=O [1,3-Dimethyl-8-phenylxanthine]
- remaining activity at 1.25 µM ([1]; Well no.=952): 103%
- remaining activity at 3.75 µM ([2]; Well no.=952): 99.2%

Structure (SMILES): COc1cccc(-c2c(C)n(Cc3c(F)cccc3C(F)(F)F)c(=O)n(C[C@H](NCCCC(=O)O)c3ccccc3)c2=O)c1F [Elagolix]
- remaining activity at 1.25 µM ([1]; Well no.=7420): 97.8%
- remaining activity at 3.75 µM ([2]; Well no.=7420): 94.7%

Structure (SMILES): Cc1cccc(C)c1OCC(=O)N[C@@H](Cc1ccccc1)[C@@H](O)C[C@H](Cc1ccccc1)NC(=O)[C@H](C(C)C)N1CCCNC1=O [Lopinavir]
- remaining activity at 1.25 µM ([1]; Well no.=9076): 83.9%
- remaining activity at 3.75 µM ([2]; Well no.=9076): 84.3%

Structure (SMILES): CCO[C@@H]1OC(=O)C[C@@H]1NC(=O)[C@@H]1CCCN1C(=O)[C@@H](NC(=O)c1ccc(N)c(Cl)c1)C(C)(C)C [Belnacasan]
- remaining activity at 1.25 µM ([1]; Well no.=6502): 98%
- remaining activity at 1.25 µM ([1]; Well no.=8460): 103%
- remaining activity at 3.75 µM ([2]; Well no.=6502): 98.4%
- remaining activity at 3.75 µM ([2]; Well no.=8460): 110%

Structure (SMILES): COc1cc2c(cc1OC(C)C)[C@H](c1ccc(Cl)cc1)N(c1ccc(N(C)C[C@H]3CC[C@H](N4CCN(C)C(=O)C4)CC3)cc1)C(=O)C2 [NVP-CGM097 (sulfate)]
- remaining activity at 1.25 µM ([1]; Well no.=6878): 95.2%
- remaining activity at 3.75 µM ([2]; Well no.=6878): 89.6%

Structure (SMILES): NC1(C(=O)O)CC1 [1-Aminocyclopropanecarboxylic acid hydrochloride]
- remaining activity at 1.25 µM ([1]; Well no.=341): 100%
- remaining activity at 3.75 µM ([2]; Well no.=341): 102%

Structure (SMILES): CN1CC[C@]2(CCN3CCc4c(oc5ccccc45)[C@@H]3C2)N(C)C1=O [MK-912]
- remaining activity at 1.25 µM ([1]; Well no.=934): 101%
- remaining activity at 3.75 µM ([2]; Well no.=934): 104%

Structure (SMILES): O=C1Nc2ccc3ncsc3c2/C1=C/c1cnc[nH]1 [PKR Inhibitor]
- remaining activity at 1.25 µM ([1]; Well no.=2511): 103%
- remaining activity at 3.75 µM ([2]; Well no.=2511): 103%

Structure (SMILES): O=C(O)CO [Glycolic acid]
- remaining activity at 1.25 µM ([1]; Well no.=6981): 97.8%
- remaining activity at 3.75 µM ([2]; Well no.=6981): 98.4%

Structure (SMILES): CC1(C)O[C@@H]2C[C@H]3[C@@H]4C[C@H](F)C5=CC(=O)C=C[C@]5(C)[C@@]4(F)[C@@H](O)C[C@]3(C)[C@]2(C(=O)CO)O1 [Fluocinolone acetonide]
- remaining activity at 1.25 µM ([1]; Well no.=2126): 97.3%
- remaining activity at 3.75 µM ([2]; Well no.=2126): 98.4%

Structure (SMILES): Cc1ncc(CO)c(CO)c1O [Pyridoxine HCl]
- remaining activity at 1.25 µM ([1]; Well no.=4935): 97.7%
- remaining activity at 3.75 µM ([2]; Well no.=4935): 96.8%

Structure (SMILES): Nc1nc(O)c2ncn(CCC(CO)CO)c2n1 [Penciclovir]
- remaining activity at 1.25 µM ([1]; Well no.=2099): 97.6%
- remaining activity at 1.25 µM ([1]; Well no.=8002): 105%
- remaining activity at 3.75 µM ([2]; Well no.=2099): 98.9%
- remaining activity at 3.75 µM ([2]; Well no.=8002): 102%

Structure (SMILES): Cc1c(N)nc([C@H](CC(N)=O)NC[C@H](N)C(N)=O)nc1C(=O)N[C@H](C(=O)N[C@H](C)[C@@H](O)[C@H](C)C(=O)N[C@H](C(=O)NCCc1nc(-c2nc(C(=O)NCCC[S+](C)C)cs2)cs1)[C@@H](C)O)[C@@H](OC1OC(CO)C(O)C(O)C1OC1OC(CO)C(O)C(OC(N)=O)C1O)c1cnc[nH]1 (some centres unmarked) [Bleomycin]
- remaining activity at 1.25 µM ([1]; Well no.=1890): 89.5%
- remaining activity at 3.75 µM ([2]; Well no.=1890): 91.9%

Structure (SMILES): CCc1nn(CCCN2CCN(c3cccc(Cl)c3)CC2)c(=O)n1CCOc1ccccc1 [2-{3-[4-(3-chlorophenyl)-1-piperazinyl]propyl}-5-ethyl-4-(2-phenoxyethyl)-2,4-dihydro-3H-1,2,4-triazol-3-one hydrochloride]
- remaining activity at 1.25 µM ([1]; Well no.=5691): 99.4%
- remaining activity at 3.75 µM ([2]; Well no.=5691): 96.7%

Structure (SMILES): CN1CCN(c2ccc3nc(-c4cc(C(C)(C)C)c(OCCCC(=O)NCCCN=[N+]=[N-])c(C(C)(C)C)c4)[nH]c3c2)CC1 [MIR96-IN-1]
- remaining activity at 1.25 µM ([1]; Well no.=7014): 94.6%
- remaining activity at 3.75 µM ([2]; Well no.=7014): 81.9%

Structure (SMILES): O=C(O)c1ccc(NC(=O)[C@H](CC2CCCC2)n2cnc(C(F)(F)F)c2)nc1 [(S)-6-(3-cyclopentyl-2-(4-(trifluoromethyl)-1H-imidazol-1-yl)propanamido)nicotinic acid]
- remaining activity at 1.25 µM ([1]; Well no.=6066): 83%
- remaining activity at 3.75 µM ([2]; Well no.=6066): 86.8%

Structure (SMILES): Cc1cc(-c2ccc(/N=N/c3ccc4c(S(=O)(=O)O)cc(S(=O)(=O)O)c(N)c4c3O)c(C)c2)ccc1/N=N/c1ccc2c(S(=O)(=O)O)cc(S(=O)(=O)O)c(N)c2c1O [Evans Blue]
- remaining activity at 1.25 µM ([1]; Well no.=8652): 99.2%
- remaining activity at 3.75 µM ([2]; Well no.=8652): 92.3%

Structure (SMILES): Oc1cccc(-c2nc(N3CCOCC3)c3oc4ncccc4c3n2)c1 [PI-103]
- remaining activity at 1.25 µM ([1]; Well no.=2367): 100%
- remaining activity at 3.75 µM ([2]; Well no.=2367): 100%
